Test results: the Kinase Knowledgebase extract (Sharma et al. 2016)
Where “and” joins values, the source holds several entries; their conditions need not be identical. Equal entries are not always repeated.

Columns and labels:
PIK3CG (human) = PIK3CG (human) (UniProt P48736); assay: Enzyme Assay
PIK3CB (Human) = PIK3CB (Human) (UniProt P42338); assay: Enzyme Assay
PIK3CD (Human) [1] = target: PIK3CD (Human) (UniProt O00329); assay: Enzyme Assay
PIK3CA (human) = PIK3CA (human) (UniProt P42336); assay: Enzyme Assay
PIK3CD (Human) [2] = target: PIK3CD (Human) (UniProt O00329); assay: Cell-Based Assay; conditions: raji

PIK3CD (Human), sequence (O00329 whole entry, looked up): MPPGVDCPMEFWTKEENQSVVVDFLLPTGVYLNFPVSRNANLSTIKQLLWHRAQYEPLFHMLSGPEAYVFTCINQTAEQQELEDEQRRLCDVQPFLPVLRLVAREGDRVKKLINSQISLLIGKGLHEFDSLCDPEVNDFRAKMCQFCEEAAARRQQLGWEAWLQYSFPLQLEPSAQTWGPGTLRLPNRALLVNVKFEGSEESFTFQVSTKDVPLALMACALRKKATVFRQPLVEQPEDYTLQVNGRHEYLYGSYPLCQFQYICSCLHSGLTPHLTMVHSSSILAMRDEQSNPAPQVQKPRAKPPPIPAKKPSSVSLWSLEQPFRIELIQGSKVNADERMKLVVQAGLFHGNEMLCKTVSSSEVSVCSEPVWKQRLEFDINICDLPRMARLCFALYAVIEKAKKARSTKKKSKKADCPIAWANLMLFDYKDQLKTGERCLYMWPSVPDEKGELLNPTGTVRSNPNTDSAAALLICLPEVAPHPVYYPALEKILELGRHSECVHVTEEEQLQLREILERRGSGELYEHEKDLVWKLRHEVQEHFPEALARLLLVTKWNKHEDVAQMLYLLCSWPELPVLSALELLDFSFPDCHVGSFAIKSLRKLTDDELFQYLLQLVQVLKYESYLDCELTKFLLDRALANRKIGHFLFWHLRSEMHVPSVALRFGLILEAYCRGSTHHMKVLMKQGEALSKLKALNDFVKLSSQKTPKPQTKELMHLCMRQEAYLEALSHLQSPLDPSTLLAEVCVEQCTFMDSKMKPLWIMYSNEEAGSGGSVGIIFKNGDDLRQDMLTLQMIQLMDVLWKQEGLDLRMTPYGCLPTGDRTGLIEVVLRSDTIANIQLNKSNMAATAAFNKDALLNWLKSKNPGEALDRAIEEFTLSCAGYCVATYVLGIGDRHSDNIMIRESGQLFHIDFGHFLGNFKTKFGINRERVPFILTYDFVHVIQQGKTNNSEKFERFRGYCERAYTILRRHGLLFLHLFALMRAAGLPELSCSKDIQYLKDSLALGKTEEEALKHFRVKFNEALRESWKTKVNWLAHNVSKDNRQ
PIK3CA (human), sequence (P42336 whole entry, looked up): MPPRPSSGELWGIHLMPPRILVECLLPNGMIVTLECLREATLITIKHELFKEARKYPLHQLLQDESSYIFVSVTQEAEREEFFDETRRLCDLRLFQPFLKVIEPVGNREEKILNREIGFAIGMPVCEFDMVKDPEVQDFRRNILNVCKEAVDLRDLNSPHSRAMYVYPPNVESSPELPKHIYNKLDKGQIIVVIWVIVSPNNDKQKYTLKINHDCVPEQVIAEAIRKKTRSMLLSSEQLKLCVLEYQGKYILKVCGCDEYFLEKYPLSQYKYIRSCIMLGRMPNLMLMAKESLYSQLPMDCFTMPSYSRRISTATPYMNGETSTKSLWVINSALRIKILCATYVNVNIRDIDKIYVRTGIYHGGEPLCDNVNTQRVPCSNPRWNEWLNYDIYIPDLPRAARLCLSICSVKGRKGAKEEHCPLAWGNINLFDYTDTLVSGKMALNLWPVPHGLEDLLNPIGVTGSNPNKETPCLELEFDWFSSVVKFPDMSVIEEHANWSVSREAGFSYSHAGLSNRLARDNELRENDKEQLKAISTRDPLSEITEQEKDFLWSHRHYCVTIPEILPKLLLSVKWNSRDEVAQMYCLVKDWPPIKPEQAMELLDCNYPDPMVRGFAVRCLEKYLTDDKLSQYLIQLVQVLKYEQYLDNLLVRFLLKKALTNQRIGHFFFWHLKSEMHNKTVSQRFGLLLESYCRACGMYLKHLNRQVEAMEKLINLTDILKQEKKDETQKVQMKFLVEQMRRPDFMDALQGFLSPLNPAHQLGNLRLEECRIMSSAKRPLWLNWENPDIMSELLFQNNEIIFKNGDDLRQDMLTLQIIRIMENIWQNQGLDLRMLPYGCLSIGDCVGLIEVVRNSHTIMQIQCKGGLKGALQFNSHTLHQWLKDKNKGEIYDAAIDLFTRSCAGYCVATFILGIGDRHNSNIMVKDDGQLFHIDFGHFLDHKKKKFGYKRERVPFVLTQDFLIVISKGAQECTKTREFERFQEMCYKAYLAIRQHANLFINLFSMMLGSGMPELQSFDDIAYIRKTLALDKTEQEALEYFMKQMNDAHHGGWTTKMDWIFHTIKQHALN
PIK3CB (Human), sequence (P42338 whole entry, looked up): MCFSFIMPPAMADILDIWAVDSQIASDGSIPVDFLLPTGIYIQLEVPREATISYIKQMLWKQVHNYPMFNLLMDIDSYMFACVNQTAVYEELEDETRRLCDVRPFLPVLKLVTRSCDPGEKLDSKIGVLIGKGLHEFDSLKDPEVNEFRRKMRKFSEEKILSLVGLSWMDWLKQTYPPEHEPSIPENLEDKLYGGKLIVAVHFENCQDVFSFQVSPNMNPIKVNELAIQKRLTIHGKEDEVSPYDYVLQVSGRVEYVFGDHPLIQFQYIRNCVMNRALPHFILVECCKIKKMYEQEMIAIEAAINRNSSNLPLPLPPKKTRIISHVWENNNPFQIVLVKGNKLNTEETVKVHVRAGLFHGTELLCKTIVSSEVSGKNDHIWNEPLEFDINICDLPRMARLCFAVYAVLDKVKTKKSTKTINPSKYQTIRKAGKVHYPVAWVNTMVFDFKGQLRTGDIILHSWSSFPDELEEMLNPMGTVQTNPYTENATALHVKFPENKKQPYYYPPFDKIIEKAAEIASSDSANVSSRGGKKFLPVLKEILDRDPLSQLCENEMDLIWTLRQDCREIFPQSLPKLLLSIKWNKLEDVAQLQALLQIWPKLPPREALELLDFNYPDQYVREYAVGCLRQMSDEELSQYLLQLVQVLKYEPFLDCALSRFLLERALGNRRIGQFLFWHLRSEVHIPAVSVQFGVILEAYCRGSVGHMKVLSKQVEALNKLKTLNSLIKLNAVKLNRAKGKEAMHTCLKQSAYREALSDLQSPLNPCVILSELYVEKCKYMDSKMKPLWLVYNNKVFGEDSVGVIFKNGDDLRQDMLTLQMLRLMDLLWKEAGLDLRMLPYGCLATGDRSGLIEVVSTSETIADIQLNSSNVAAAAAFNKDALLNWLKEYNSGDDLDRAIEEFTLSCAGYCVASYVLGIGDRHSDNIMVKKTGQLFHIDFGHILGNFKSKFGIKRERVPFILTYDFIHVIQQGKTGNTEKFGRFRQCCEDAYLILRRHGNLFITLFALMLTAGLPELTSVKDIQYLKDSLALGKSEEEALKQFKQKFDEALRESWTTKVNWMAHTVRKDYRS
PIK3CG (human), sequence (P48736 whole entry, looked up): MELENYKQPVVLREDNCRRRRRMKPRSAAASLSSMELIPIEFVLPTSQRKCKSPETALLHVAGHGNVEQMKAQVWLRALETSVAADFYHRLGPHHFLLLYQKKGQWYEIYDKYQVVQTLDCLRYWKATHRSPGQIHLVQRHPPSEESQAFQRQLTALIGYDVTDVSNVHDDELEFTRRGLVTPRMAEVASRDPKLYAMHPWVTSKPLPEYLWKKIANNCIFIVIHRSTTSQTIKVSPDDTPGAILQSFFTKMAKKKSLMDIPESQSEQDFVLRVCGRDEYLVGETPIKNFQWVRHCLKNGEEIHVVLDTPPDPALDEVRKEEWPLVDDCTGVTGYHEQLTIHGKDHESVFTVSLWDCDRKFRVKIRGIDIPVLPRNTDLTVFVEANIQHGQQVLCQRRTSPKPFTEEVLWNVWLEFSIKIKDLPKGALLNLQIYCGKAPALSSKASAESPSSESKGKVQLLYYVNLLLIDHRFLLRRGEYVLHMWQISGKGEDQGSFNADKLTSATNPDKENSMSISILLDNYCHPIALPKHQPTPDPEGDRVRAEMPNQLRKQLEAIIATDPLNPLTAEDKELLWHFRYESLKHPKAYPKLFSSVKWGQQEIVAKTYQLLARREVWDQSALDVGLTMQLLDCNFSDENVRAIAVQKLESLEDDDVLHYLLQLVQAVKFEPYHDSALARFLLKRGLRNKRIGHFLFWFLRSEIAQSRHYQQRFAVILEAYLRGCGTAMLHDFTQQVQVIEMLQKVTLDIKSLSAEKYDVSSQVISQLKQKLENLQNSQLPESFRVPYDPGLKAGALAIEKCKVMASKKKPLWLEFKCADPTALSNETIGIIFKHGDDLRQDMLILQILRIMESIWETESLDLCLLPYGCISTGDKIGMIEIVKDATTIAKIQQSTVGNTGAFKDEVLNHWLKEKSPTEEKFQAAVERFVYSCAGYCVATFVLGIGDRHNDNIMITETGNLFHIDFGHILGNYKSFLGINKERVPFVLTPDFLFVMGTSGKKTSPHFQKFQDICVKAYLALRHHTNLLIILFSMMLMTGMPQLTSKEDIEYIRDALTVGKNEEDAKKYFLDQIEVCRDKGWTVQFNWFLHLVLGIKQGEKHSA

IC50 (PIK3CG (human)) [nM] | IC50 (PIK3CB (Human)) | IC50 (PIK3CD (Human) [1]) | IC50 (PIK3CA (human)) [nM] | IC50 (PIK3CD (Human) [2]) [nM] | Compound
≥ 10000 | ≥ 10000 nM | ≥ 10000 nM | ≥ 10000 | – | C[C@H](NC(=O)c1c(N)nn2cccnc12)c1cc2cccc(/C=C/c3ccccc3)c2c(=O)n1-c1ccccc1
≥ 10000 | ≥ 10000 nM | ≥ 10000 nM | ≥ 10000 | – | C[C@H](NC(=O)c1c(N)nn2cccnc12)c1cc2cccc(NC3CCCCC3)c2c(=O)n1-c1ccccc1
< 100 | < 100 nM | < 100 nM | < 100 | – | C[C@H](NC(=O)c1nc(-c2cncc(NS(C)(=O)=O)c2)cnc1N)c1cc2cccc(Cl)c2c(=O)n1C1CC1
< 100 | 100 to 1000 nM | 100 to 1000 nM | 100 to 1000 | < 100 | C[C@H](NC(=O)c1c(N)nn2cccnc12)c1cc2cccc(C#CCNC(=O)[C@@H]3CCC(=O)O3)c2c(=O)n1-c1ccccc1
< 100 | ≥ 10000 nM | 100 to 1000 nM | ≥ 10000 | < 100 | C[C@H](NC(=O)c1c(N)nn2cccnc12)c1cc2cccc(-c3ccc(=O)n(C)c3)c2c(=O)n1-c1ccccc1
< 100 | < 100 nM | 100 to 1000 nM | 100 to 1000 | < 100 | C[C@H](NC(=O)c1nc(-c2cccc(S(=O)(=O)NC3CC3)c2)cnc1N)c1cc2cccc(Cl)c2c(=O)n1C
≥ 10000 | ≥ 10000 nM | ≥ 10000 nM | ≥ 10000 | – | COc1cccc(-c2cnc(N)c(C(=O)N[C@@H](C)c3cc4cccc(Cl)c4c(=O)n3-c3ccccc3)n2)c1
< 100 | < 100 nM | < 100 nM | < 100 | < 100 | C[C@H](NC(=O)c1c(N)nn2ccc(-c3cccc(S(C)(=O)=O)c3)nc12)c1cc2cccc(Cl)c2c(=O)n1-c1ccccc1
100 to 1000 | 100 to 1000 nM | 100 to 1000 nM | ≥ 10000 | < 100 | C[C@H](NC(=O)c1nc(C#N)cnc1N)c1cc2cccc(Cl)c2c(=O)n1-c1ccccc1
≥ 10000 | ≥ 10000 nM | ≥ 10000 nM | ≥ 10000 | – | CC(=O)Nc1ncc(-c2cccc(NS(C)(=O)=O)c2)nc1C(=O)N[C@@H](C)c1cc2cccc(Cl)c2c(=O)n1C
≥ 10000 | ≥ 10000 nM | ≥ 10000 nM | ≥ 10000 | – | C[C@H](NC(=O)c1cc(-c2cccc(NS(C)(=O)=O)c2)cnc1N)c1cc2cccc(Cl)c2c(=O)n1-c1ccccc1
≥ 10000 | ≥ 10000 nM | ≥ 10000 nM | ≥ 10000 | – | COc1cc(-c2csc3cc([C@H](C)NC(=O)c4c(N)nn5cccnc45)n(-c4ccccc4)c(=O)c23)ccn1
100 to 1000 | < 100 nM | 100 to 1000 nM | 100 to 1000 | < 100 | C[C@H](NC(=O)c1c(N)nn2cccnc12)c1cc2cccc(Cl)c2c(=O)n1C1CC1
≥ 10000 | ≥ 10000 nM | ≥ 10000 nM | ≥ 10000 | – | C[C@H](NC(=O)c1c(N)nn2cccnc12)c1nn2ccc(Cl)c2c(=O)n1-c1ccccc1
– | ≥ 10000 nM | 100 to 1000 nM | ≥ 10000 | < 100 | C[C@H](NC(=O)c1nccnc1N)c1cc2cccc(-c3cc[nH]n3)c2c(=O)n1-c1ccccc1
– | < 100 nM | < 100 nM | ≥ 10000 | < 100 | C[C@H](NC(=O)c1c(N)nn2cccnc12)c1cc2cccc(Cl)c2c(=O)n1CCN(C)C
< 100 | < 100 nM | 100 to 1000 nM | 100 to 1000 | < 100 | C[C@H](NC(=O)c1nc(-c2cccc(NS(C)(=O)=O)c2)cnc1N)c1cc2cccc(Cl)c2c(=O)n1C
– | ≥ 10000 nM | ≥ 10000 nM | ≥ 10000 | ≥ 10000 | CC(C)Oc1ccc(-c2cnc(N)c(C(=O)N[C@@H](C)c3cc4cccc(Cl)c4c(=O)n3-c3ccccc3)n2)cc1
≥ 10000 | ≥ 10000 nM | ≥ 10000 nM | ≥ 10000 | – | Nc1nn2cccnc2c1C(=O)NCc1cc2cccc(Cl)c2c(=O)n1-c1ccccc1

IC50 (PIK3CG (human)) [nM] | IC50 (PIK3CB (Human)) | IC50 (PIK3CD (Human) [1]) | IC50 (PIK3CA (human)) [nM] | IC50 (PIK3CD (Human) [2]) [nM] | Compound
– | ≥ 10000 nM | ≥ 10000 nM | ≥ 10000 | 100 to 1000 | C[C@H](NC(=O)c1c(N)nn2cccnc12)c1cc2cccc(NCC(F)(F)F)c2c(=O)n1-c1ccccc1
< 100 | < 100 nM | 100 to 1000 nM | < 100 | < 100 | C[C@H](NC(=O)c1nc(-c2cccc(S(C)(=O)=O)c2)c(N)nc1N)c1cc2cccc(Cl)c2c(=O)n1-c1ccccc1
100 to 1000 | 100 to 1000 nM | 100 to 1000 nM | ≥ 10000 | < 100 | C[C@H](NC(=O)c1nccnc1N)c1cc2cccc(Cl)c2c(=O)n1-c1ccc(F)cc1
≥ 10000 | ≥ 10000 nM | < 100 nM | ≥ 10000 | – | CC(=O)N(C)Cc1cccc2cc([C@H](C)NC(=O)c3c(N)nn4cccnc34)n(-c3ccccc3)c(=O)c12
≥ 10000 | ≥ 10000 nM | < 100 nM | ≥ 10000 | – | C[C@H](NC(=O)c1c(N)nn2cccnc12)c1cc2cccc(CN(C)C)c2c(=O)n1-c1ccccc1
– | ≥ 10000 nM | ≥ 10000 nM | ≥ 10000 | 100 to 1000 | C[C@H](NC(=O)c1nc(-c2ccccc2)cnc1N)c1cc2cccc(Cl)c2c(=O)n1-c1ccccc1
≥ 10000 | ≥ 10000 nM | ≥ 10000 nM | ≥ 10000 | – | C[C@H](NC(=O)c1c(N)nn2cccnc12)c1cc2cccc(N3CCN(C)CC3)c2c(=O)n1-c1ccccc1
≥ 10000 | ≥ 10000 nM | ≥ 10000 nM | ≥ 10000 | – | C[C@H](NC(=O)c1c(N)nn2c1NCCC2)c1cc2cccc(Cl)c2c(=O)n1-c1ccccc1
< 100 | < 100 nM | 100 to 1000 nM | 100 to 1000 | 100 to 1000 | C[C@H](NC(=O)c1nc(-c2cncc(NS(C)(=O)=O)c2)cnc1N)c1cc2cccc(Cl)c2c(=O)n1-c1ccccc1
< 100 | 100 to 1000 nM | 100 to 1000 nM | 100 to 1000 | < 100 | C#Cc1cccc2cc([C@H](C)NC(=O)c3c(N)nn4cccnc34)n(-c3ccccc3)c(=O)c12
≥ 10000 | ≥ 10000 nM | ≥ 10000 nM | ≥ 10000 | – | CC(C)Nc1cccc2cc([C@H](C)NC(=O)c3c(N)nn4cccnc34)n(-c3ccccc3)c(=O)c12
< 100 | 100 to 1000 nM | 100 to 1000 nM | 100 to 1000 | < 100 | C[C@H](NC(=O)c1c(N)nn2cccnc12)c1cc2cccc(Cl)c2c(=O)n1CCN(C)S(C)(=O)=O
≥ 10000 | ≥ 10000 nM | ≥ 10000 nM | ≥ 10000 | – | C[C@H](NC(=O)c1c(N)nn2cccnc12)c1nn2ccc(-c3cnn(C)c3)c2c(=O)n1-c1ccccc1
≥ 10000 | ≥ 10000 nM | ≥ 10000 nM | ≥ 10000 | – | CC(C)c1ccnc2c(C(=O)N[C@@H](C)c3cc4cccc(Cl)c4c(=O)n3-c3ccccc3)c(N)nn12
– | ≥ 10000 nM | ≥ 10000 nM | ≥ 10000 | ≥ 10000 | CC(C)Oc1ccc(-c2cnc(N)c(C(=O)N[C@@H](C)c3cc4cccc(Cl)c4c(=O)n3-c3ccccc3)n2)cc1Cl
– | ≥ 10000 nM and 100 to 1000 nM | ≥ 10000 nM and 100 to 1000 nM | ≥ 10000 | < 100 | C[C@H](NC(=O)c1c(N)nn2cccnc12)c1cc2cccc(F)c2c(=O)n1-c1ccccc1
≥ 10000 | ≥ 10000 nM | ≥ 10000 nM | ≥ 10000 | – | C[C@H](NC(=O)c1nc(-c2cccc(S(=O)(=O)N3CCOCC3)c2)cnc1N)c1cc2cccc(Cl)c2c(=O)n1-c1ccccc1
– | ≥ 10000 nM | < 100 nM | ≥ 10000 | < 100 | C[C@H](NC(=O)c1nccnc1N)c1cc2cccc(-c3cccnc3)c2c(=O)n1-c1ccccc1
